Source: patent US9163044B2, “Carbon monoxide releasing molecules and uses thereof” (Alfama, Inc., priority 2011, dated 2015)

Key:
[1] = CO release kinetics in the presence of rat liver microsomes, K-phosphate buffer (pH 7.4); format: in vitro ADME; settings: for effect of liver microsomes on CO release / decay (in words): compared with incubation without microsomes; for CO eq. released in 1 h, Microsomes K-phosphate buffer (pH 7.4): with microsomes, 10 μM, 37° C., dark
Description: General Method for the CO Release in the Presence of Liver Microsomes
The CO release kinetics of Compounds 1b, 2b, 3b, 4b, and 5b were also evaluated in the presence of rat or human liver microsomes. In a 8-mL vial, the following reagents were combined:
200 μL of 0.5 M potassium phosphate buffer, pH 7.4
50 μL of NADPH regenerating system solution A (BD, Cat. No. 451220)
10 μL of NADPH regenerating system solution B (BD, Cat. No. 451200)
2 μL of 5 mM solution of the compound in DMSO (10 μM final concentration)
The vials were closed and after mixing, the samples were warmed to 37° C. for 5 minutes before an aliquot (25 μL, 0.5 mg protein content) of rat liver microsomes (BD, Cat. No. 452511) or human liver microsomes (BD, Cat. No. 452161) was added to each vial. In parallel analogous vials with all the reagents except the microsomes were prepared. Due to the light-sensitivity of the molybdenum compounds, the reactions were performed in the dark. The samples were incubated at 37° C. and gas samples of the headspace (from 100 μL to 500 μL) of the vials were removed with a gas-tight syringe after 5, 10, 15, 30, and 60 minutes (in some cases samples were also taken at 1, 2, 3 or 4 minutes) upon microsomes addition. The gas samples were then injected into empty sealed vials (8 mL volume) and the amount of CO present in the vials was measured using GC-RCP.
The CO equivalents released at each time point from each compound were determined by the following equation: (CO released (pmol)×number of CO ligands in the molecule)/([CO] in the compound (pmol)). A 1 mL solution of a tri-carbonyl compound, at 50 μM concentration contains a total of 150,000 pmol of CO.

[2] = tissue CO distribution in CD-1 female mice; format: in vivo; settings: for CO levels in the liver compared with blood, kidney, heart and lung tissues (in words): 50 mg/kg i.v., CD-1 female mice
Description: Carbon monoxide-releasing molecules (CO-RMs) are carriers of carbon monoxide (CO) and can release CO in vivo. CO can bind to hemoglobin in the blood and to various heme proteins in cells. Vreman et al. Anal Biochem 341:280-289 describes a method to release CO bound to tissues into the gas phase, and quantify it using GC-RCP chromatography. We applied this methodology to assay CO in various tissues of mice treated with CO-RMs (see Example 2, herein). However, since the CO release method of Vreman (in vitro incubation with sulfosalicylic acid) also releases CO from the CO-RM, the CO released from tissue samples represents CO bound to tissue proteins and CO from CO-RM compound accumulated in tissue. For CO-RM compounds with slow CO release rates in vivo, the CO measured at the earliest sampling point (5 min after CO-RM administration) may therefore mostly be a measure for the tissue distribution of the intact CO-RM.
The compound was dissolved in PBS and the acids neutralized with 3 eq. NaOH (from a NaOH stock solution 2.5M). The pH was brought down to about 7.5 by adding HCl (from a stock solution 1 M). The compound was then administered i.v. (50 mg/kg in 150 μL) to two CD-1 female mice (Charles River). The mice were warmed for ten minutes under an infrared lamp to facilitate the i.v. administration into a tail vein. Five and twenty minutes after the dosing, the two mice were anesthetized with IsoFluorane, and the blood was collected from the retro-orbital plexus using a Pasteur pipette containing ˜20 μL of heparin solution. The animal was opened; the portal vein was cut and the organs were perfused by injecting 10-15 mL of cold PBS in the left ventricle of the heart. Then the heart, kidneys, liver and lung were collected, briefly washed with potassium phosphate buffer, dried with a paper towel and snap frozen in liquid nitrogen. Samples of the freshly collected blood were transferred to AVOXimeter 4000 cuvettes (ITC) to measure the levels of carboxyhemoglobin (COHb), oxyhemoglobin (O2Hb) and methemoglobin (MetHb) using a portable AVOXimeter 4000 CO-oximeter. The results are shown as mean percentage of total hemoglobin species in circulation. The organs and blood were conserved at −20° C. until the CO quantization was done.
For CO quantization, the protocol described by Vreman et al was followed. The organs were cut into small pieces, which were weighed and 4 volumes of water (a volume corresponding to four times the weight of the tissue sample) were added to each organ sample. The tissues were homogenized using a tissue tearer. Aliquots of homogenate ([…]) were placed into vials to which were added water ([…]) and sulfosalicylic acid (SSA, 5 μL, 30% [wt/vol]) immediately before they were closed with a gas-tight septum cap. The vials were incubated on ice for at least 20 min before being analyzed by GC-RCP (in later experiments, the incubation time was extended to 45 minutes). The amount of CO was calculated using a calibration curve prepared from CO standards. […] COHb was determined using an oximeter (AVOXimeter 4000, USA).
Table 6 provides the CO distribution in blood, heart, liver, lung and kidney following Compound 3b administration at 50 mg/kg by […]. CO was assayed by GC-RCP, 5 and 20 minutes after administration of the compound. The CO concentration in the several organs is normalized to the amount of CO quantified in the blood (CO concentration as fraction of concentration in blood 50 mg/kg Compound 3b injected i.v. at t=0; CO assayed in tissues by GC at t=5 min and t=20 min).

[3] = CO release kinetics in 50 mM HEPES buffer (pH 7.4), GC-RCP; format: physicochemical; settings: for CO equivalents released in 24 hours in the dark / CO equivalents released in 24 hours under light: 50 mM HEPES buffer
Description: The quantization of the released CO was performed according to Vreman et al. Anal. Biochem. (2005) 341: 280-289 using a Gas Chromatograph with a Reducing Compound Photometer detector (GC-RCP; Peak Laboratories, Mountain View, Calif.), which allows quantifying CO in gas mixtures at concentrations as low as 1-2 parts per billion (ppb).
General Method for the Determination of CO Release in HEPES Buffer
The CO release kinetics of all compounds was evaluated in 50 mM HEPES buffer (pH 7.4) in a sealed 8-mL vial. […] Since light activation can release CO from molybdenum carbonyl compounds, CO release was determined with solutions in closed, clear glass vials kept under light (on the laboratory bench under regular laboratory lighting) or in the dark (wrapped in aluminum foil and kept inside a cardboard box). Gas samples (from 10 μL up to 500 μL) of the vial headspace (7 ml volume) were removed with a gas-tight syringe at 15, 30, 60, 120, 240, 360 min, and 24 hours after start of the incubation. The gas samples were injected into sealed vials containing air (8 mL) for dilution. The entire gas volume of the vials (8 mL) was transferred with carrier gas to the GC-RCP and analyzed for CO. The GC-RCP had been calibrated with gas containing a known amount of CO. The calibration curve had been established starting with gas from a cylinder which contained synthetic air with 30 ppm CO (Linde, Cat. No. 14960013) and preparing dilutions in 8-mL vials as described above.
The CO equivalents released at each time point from each compound were determined by the following equation: (CO released (pmol)×number of CO ligands in the molecule)/([CO] in the compound (pmol)).

Compound	effect of liver microsomes on CO release / decay (in words) [1]	CO eq. released in 1 h, Microsomes K-phosphate buffer (pH 7.4) [1]	CO levels in the liver compared with blood, kidney, heart and lung tissues (in words) [2]	CO equivalents released in 24 hours in the dark [3] [CO equivalents]	CO equivalents released in 24 hours under light ([3]; under light) [CO equivalents]	time to release 0.5 CO equivalents under light ([3]; 50 mM HEPES pH 7.4, 50 μM, under light)	initial CO release rate, presence versus absence of microsomes ([1]; ratio with/without microsomes)	CO concentration as fraction of concentration in blood: Blood, 5 min ([2]; 50 mg/kg, blood, t=5 min)	CO concentration as fraction of concentration in blood: Blood, 20 min ([2]; 50 mg/kg, blood, t=20 min)	CO concentration as fraction of concentration in blood: Heart, 5 min ([2]; 50 mg/kg, heart, t=5 min)	CO concentration as fraction of concentration in blood: Heart, 20 min ([2]; 50 mg/kg, heart, t=20 min)	CO concentration as fraction of concentration in blood: Kidney, 5 min ([2]; 50 mg/kg, kidney, t=5 min)	CO concentration as fraction of concentration in blood: Kidney, 20 min ([2]; 50 mg/kg, kidney, t=20 min)	CO concentration as fraction of concentration in blood: Liver, 5 min ([2]; 50 mg/kg, liver, t=5 min)	CO concentration as fraction of concentration in blood: Liver, 20 min ([2]; 50 mg/kg, liver, t=20 min)	CO concentration as fraction of concentration in blood: Lung, 5 min ([2]; 50 mg/kg, lung, t=5 min)	CO concentration as fraction of concentration in blood: Lung, 20 min ([2]; 50 mg/kg, lung, t=20 min)	CO concentration in the liver relative to blood ([2]; five minutes after i.v. injection)
CC([N+]#[C][Mo-6]([C]#[O+])([C]#[O+])([C]#[O+])([C]#[N+]C(C)C(=O)O)[C]#[N+]C(C)C(=O)O)C(=O)O (stereo not shown) [Compound 2b, tricarbonyl[tris(2-isocyanopropionic acid)]Mo(0)]	accelerated the decay	(0.9CO eq. in 1 h)	increased CO levels in the liver	1.2	1.5	about 90 minutes	–	–	–	–	–	–	–	–	–	–	–	–
[C-]#[N+]C(C)(C)C(=O)O.[C-]#[N+]C(C)(C)C(=O)O.[C-]#[N+]C(C)(C)C(=O)O.[C-]#[O+].[C-]#[O+].[C-]#[O+].[Mo] [Compound 3b, tricarbonyl[tris(2-isocyano-2-methyl-propionic acid)]Mo(0)]	increased rate of CO release	(1.5CO eq. in 1 h)	increased CO levels in the liver	1.3	1.8	–	approximately 4 times faster	1	1	0.046 ± 0.012	0.072 ± 0.055	0.419 ± 0.295	0.074 ± 0.028	5.26 ± 3.18	0.163 ± 0.062	0.049 ± 0.020	0.060 ± 0.046	five times higher in the liver than in blood
tricarbonyl[tris(isocyanoacetic acid)]Mo(0) [Compound 1b]	increased rate of CO release	(1.1CO eq. in 1 h)	no preferential accumulation of CO in the liver	1.4	1.6	–	–	–	–	–	–	–	–	–	–	–	–	–
